The values below are quoted from earlier work in patent US10507179B2, “Formulations of levosimendan for intravenous administration as infusion or injection and of infusion concentrate” (CARINOPHARM GmbH, priority 2015, dated 2019).

Values after ≈ are worked out from the molar mass of the structure shown. Values joined by “and” are separate entries in the source; they are usually repeats but may differ in a detail not shown here. Identical values can stand only once.

Assay in series [1]: not given
This is another data set of the same source.

As to `C[C@@H]1CC(=O)NN=C1c1ccc(NN=C(C#N)C#N)cc1` [Levosimendan, (−)-[[4-(1,4,5,6-tetrahydro-4-methyl-6-oxo-3-pyridazi-nyl)phenyl]hydrazono]propane dinitrile], the solubility (pH value of 2) is 20 µg/mL (≈ 71.4 µM). In addition, for the setting “physiological pH”, the “stability in aqueous solutions” value is recorded as “not stable”. Besides, for the setting “room temperature, physiological pH of 7.4”, the “solubility in phosphate buffer” value was 400 µg/mL (≈ 1430 µM). Besides, the pKa in series [1] is 6.3 and 6.26.
